Measured values: PubChem BioAssay (NCI)
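Cells were grown in 96-well plates and exposed to each compound for 48 hours at five concentrations; endpoints were interpolated linearly between bracketing concentrations, or set to the highest concentration if not reached. The concentration for 50% growth inhibition is given as GI50. The concentration for full growth arrest is given as TGI.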

Key:
Assay in all cases: DTP human tumour cell line panel, 48 h
HOP-92 NSCLC = test system: HOP-92 NSCLC
HS 578T breast = test system: HS 578T breast
SNB-19 CNS = test system: SNB-19 CNS
DU-145 prostate = test system: DU-145 prostate
UO-31 renal = test system: UO-31 renal
MDA-MB-231 breast = test system: MDA-MB-231 breast
SF-539 CNS = test system: SF-539 CNS
OVCAR-8 ovarian = test system: OVCAR-8 ovarian
BT-549 breast = test system: BT-549 breast
MOLT-4 leukemia = test system: MOLT-4 leukemia
SN12C renal = test system: SN12C renal
HCT-15 colon = test system: HCT-15 colon
SNB-75 CNS = test system: SNB-75 CNS
HCT-116 colon = test system: HCT-116 colon
786-0 renal = test system: 786-0 renal
IGROV1 ovarian = test system: IGROV1 ovarian
HL-60(TB) leukemia = test system: HL-60(TB) leukemia
KM12 colon = test system: KM12 colon
K-562 leukemia = test system: K-562 leukemia
MCF7 breast = test system: MCF7 breast
HOP-62 NSCLC = test system: HOP-62 NSCLC
NCI/ADR-RES ovarian = test system: NCI/ADR-RES ovarian
TK-10 renal = test system: TK-10 renal
SR leukemia = test system: SR leukemia
NCI-H23 lung = test system: NCI-H23 lung
U251 CNS = test system: U251 CNS
OVCAR-3 ovarian = test system: OVCAR-3 ovarian
A549 NSCLC = test system: A549 NSCLC
PC-3 prostate = test system: PC-3 prostate
SK-MEL-5 melanoma = test system: SK-MEL-5 melanoma
NCI-H226 lung = test system: NCI-H226 lung
UACC-257 melanoma = test system: UACC-257 melanoma
HT29 colon = test system: HT29 colon
HCC-2998 colon = test system: HCC-2998 colon
M14 melanoma = test system: M14 melanoma
A498 renal = test system: A498 renal
SK-OV-3 ovarian = test system: SK-OV-3 ovarian
SF-268 CNS = test system: SF-268 CNS
RPMI-8226 leukemia = test system: RPMI-8226 leukemia
CAKI-1 renal = test system: CAKI-1 renal
NCI-H522 lung = test system: NCI-H522 lung
SW-620 colon = test system: SW-620 colon
LOX IMVI melanoma = test system: LOX IMVI melanoma
ACHN renal = test system: ACHN renal
MALME-3M melanoma = test system: MALME-3M melanoma
OVCAR-5 ovarian = test system: OVCAR-5 ovarian
NCI-H460 lung = test system: NCI-H460 lung
OVCAR-4 ovarian = test system: OVCAR-4 ovarian
EKVX NSCLC = test system: EKVX NSCLC
SK-MEL-28 melanoma = test system: SK-MEL-28 melanoma
UACC-62 melanoma = test system: UACC-62 melanoma
MDA-MB-435 = test system: MDA-MB-435
CCRF-CEM leukemia = test system: CCRF-CEM leukemia
SK-MEL-2 melanoma = test system: SK-MEL-2 melanoma
RXF 393 renal = test system: RXF 393 renal
T-47D breast = test system: T-47D breast
SF-295 CNS = test system: SF-295 CNS

SMILES: COC(=O)N[C@H]1CCc2c(Br)c(OC)c(OC)c(OC)c2-c2ccc(SC)c(=O)cc21
- GI50 (HOP-92 NSCLC): < 0.0171 µM
- TGI (HOP-92 NSCLC): 5.17 µM
- GI50 (HS 578T breast): < 10 nM
- TGI (HS 578T breast): > 52.1 µM
- GI50 (SNB-19 CNS): < 10 nM
- TGI (SNB-19 CNS): > 49.7 µM
- GI50 (DU-145 prostate): < 10 nM
- TGI (DU-145 prostate): 145 nM
- GI50 (UO-31 renal): < 28.1 nM
- TGI (UO-31 renal): 19 µM
- GI50 (MDA-MB-231 breast): < 10 nM
- TGI (MDA-MB-231 breast): 14 µM
- GI50 (SF-539 CNS): < 10 nM
- TGI (SF-539 CNS): < 0.01 µM
- GI50 (OVCAR-8 ovarian): < 10 nM
- TGI (OVCAR-8 ovarian): > 77.2 µM
- GI50 (BT-549 breast): < 10 nM
- TGI (BT-549 breast): 14.9 µM
- GI50 (MOLT-4 leukemia): < 10 nM
- TGI (MOLT-4 leukemia): 21.7 µM
- GI50 (SN12C renal): < 10 nM
- TGI (SN12C renal): 25.5 µM
- GI50 (HCT-15 colon): < 10 nM
- TGI (HCT-15 colon): 11.6 µM
- GI50 (SNB-75 CNS): < 10 nM
- TGI (SNB-75 CNS): 20.9 µM
- GI50 (HCT-116 colon): < 10 nM
- TGI (HCT-116 colon): 11.5 µM
- GI50 (786-0 renal): < 16.3 nM
- TGI (786-0 renal): 24.8 µM
- GI50 (IGROV1 ovarian): < 10 nM
- TGI (IGROV1 ovarian): > 39.5 µM
- GI50 (HL-60(TB) leukemia): < 10 nM
- TGI (HL-60(TB) leukemia): < 0.01 µM
- GI50 (KM12 colon): < 10 nM
- TGI (KM12 colon): 10.6 µM
- GI50 (K-562 leukemia): < 10 nM
- TGI (K-562 leukemia): 15.9 µM
- GI50 (MCF7 breast): < 10 nM
- TGI (MCF7 breast): 12.4 µM
- GI50 (HOP-62 NSCLC): < 10 nM
- TGI (HOP-62 NSCLC): > 100 µM
- GI50 (NCI/ADR-RES ovarian): 17.9 nM
- GI50 (TK-10 renal): 9.63 µM
- TGI (TK-10 renal): > 85900 nM
- GI50 (SR leukemia): < 10 nM
- TGI (SR leukemia): 22.4 µM
- GI50 (NCI-H23 lung): < 10 nM
- TGI (NCI-H23 lung): 18.5 µM
- GI50 (U251 CNS): < 10 nM
- TGI (U251 CNS): 15 µM
- GI50 (OVCAR-3 ovarian): < 10 nM
- TGI (OVCAR-3 ovarian): < 0.01 µM
- GI50 (A549 NSCLC): < 10 nM
- TGI (A549 NSCLC): > 52600 nM
- GI50 (PC-3 prostate): < 10 nM
- TGI (PC-3 prostate): 32.6 µM
- GI50 (SK-MEL-5 melanoma): < 0.01 µM
- TGI (SK-MEL-5 melanoma): 0.0182 µM
- GI50 (NCI-H226 lung): < 0.01 µM
- TGI (NCI-H226 lung): 10.8 µM
- GI50 (UACC-257 melanoma): 11.4 µM
- TGI (UACC-257 melanoma): 61.2 µM
- GI50 (HT29 colon): < 10 nM
- TGI (HT29 colon): 18.8 µM
- GI50 (HCC-2998 colon): < 10 nM
- TGI (HCC-2998 colon): 11.5 µM
- GI50 (M14 melanoma): < 10 nM
- TGI (M14 melanoma): 8.53 µM
- GI50 (A498 renal): < 10 nM
- TGI (A498 renal): < 10 nM
- GI50 (SK-OV-3 ovarian): < 10 nM
- TGI (SK-OV-3 ovarian): > 100 µM
- GI50 (SF-268 CNS): < 10 nM
- TGI (SF-268 CNS): 16.6 µM
- GI50 (RPMI-8226 leukemia): < 10 nM
- TGI (RPMI-8226 leukemia): 5.84 µM
- GI50 (CAKI-1 renal): < 20.9 nM
- TGI (CAKI-1 renal): 21.9 µM
- GI50 (NCI-H522 lung): < 10 nM
- TGI (NCI-H522 lung): 1220 nM
- GI50 (SW-620 colon): < 10 nM
- TGI (SW-620 colon): 19.7 µM
- GI50 (LOX IMVI melanoma): < 10 nM
- TGI (LOX IMVI melanoma): 12 µM
- GI50 (ACHN renal): < 10 nM
- TGI (ACHN renal): 25.4 µM
- GI50 (MALME-3M melanoma): 0.0148 µM
- TGI (MALME-3M melanoma): 30.5 µM
- GI50 (OVCAR-5 ovarian): < 10 nM
- TGI (OVCAR-5 ovarian): > 39.6 µM
- GI50 (NCI-H460 lung): < 10 nM
- TGI (NCI-H460 lung): 10.7 µM
- GI50 (OVCAR-4 ovarian): 152 nM
- TGI (OVCAR-4 ovarian): > 57 µM
- GI50 (EKVX NSCLC): < 10 nM
- TGI (EKVX NSCLC): > 85.4 µM
- GI50 (SK-MEL-28 melanoma): 6.99 µM
- TGI (SK-MEL-28 melanoma): 25.1 µM
- GI50 (UACC-62 melanoma): < 10 nM
- TGI (UACC-62 melanoma): 18 µM
- GI50 (MDA-MB-435): < 10 nM
- TGI (MDA-MB-435): < 0.01 µM
- GI50 (CCRF-CEM leukemia): < 10 nM
- TGI (CCRF-CEM leukemia): 24.9 µM

SMILES: CCOC(=O)c1c2c(n3ccc(NC(=O)CCN4CCCC4)cc13)C(=O)c1ncccc1C2=O
- GI50 (HOP-92 NSCLC): 11.8 µM
- TGI (HOP-92 NSCLC): 27.5 µM
- GI50 (SNB-19 CNS): 1170 nM
- TGI (SNB-19 CNS): 3.54 µM
- GI50 (DU-145 prostate): 1460 nM
- TGI (DU-145 prostate): 2960 nM
- GI50 (UO-31 renal): 724 nM
- TGI (UO-31 renal): 2.81 µM
- GI50 (MDA-MB-231 breast): 1840 nM
- TGI (MDA-MB-231 breast): 3.83 µM
- GI50 (SF-539 CNS): 1520 nM
- TGI (SF-539 CNS): 3.19 µM
- GI50 (OVCAR-8 ovarian): 1380 nM
- TGI (OVCAR-8 ovarian): 3.49 µM
- GI50 (BT-549 breast): 1540 nM
- TGI (BT-549 breast): 3.64 µM
- GI50 (MOLT-4 leukemia): 1520 nM
- TGI (MOLT-4 leukemia): 4.81 µM
- GI50 (SN12C renal): 1430 nM
- TGI (SN12C renal): 3.47 µM
- GI50 (SK-MEL-2 melanoma): 18.5 µM
- TGI (SK-MEL-2 melanoma): 39.3 µM
- GI50 (RXF 393 renal): 1410 nM
- TGI (RXF 393 renal): 3.36 µM
- GI50 (SNB-75 CNS): 1050 nM
- TGI (SNB-75 CNS): 2.41 µM
- GI50 (HCT-116 colon): 175 nM
- TGI (HCT-116 colon): 1.94 µM
- GI50 (786-0 renal): 214 nM
- TGI (786-0 renal): 1.69 µM
- GI50 (IGROV1 ovarian): 1010 nM
- TGI (IGROV1 ovarian): 3.27 µM
- GI50 (HL-60(TB) leukemia): 1070 nM
- TGI (HL-60(TB) leukemia): 3.32 µM
- GI50 (KM12 colon): 1520 nM
- TGI (KM12 colon): 3.32 µM
- GI50 (HOP-62 NSCLC): 1080 nM
- TGI (HOP-62 NSCLC): 3.11 µM
- GI50 (NCI/ADR-RES ovarian): 1270 nM
- TGI (NCI/ADR-RES ovarian): 4.86 µM
- GI50 (TK-10 renal): 1.26 µM
- TGI (TK-10 renal): 2610 nM
- TGI (SR leukemia): 1.39 µM
- GI50 (U251 CNS): 1270 nM
- TGI (U251 CNS): 2.82 µM
- GI50 (OVCAR-3 ovarian): 1480 nM
- TGI (OVCAR-3 ovarian): 3.12 µM
- GI50 (A549 NSCLC): 1030 nM
- TGI (A549 NSCLC): 2670 nM
- GI50 (PC-3 prostate): 1310 nM
- TGI (PC-3 prostate): 2.88 µM
- GI50 (SK-MEL-5 melanoma): 15.1 µM
- TGI (SK-MEL-5 melanoma): 35 µM
- GI50 (NCI-H226 lung): 19 µM
- TGI (NCI-H226 lung): 45.1 µM
- GI50 (UACC-257 melanoma): 13.8 µM
- TGI (UACC-257 melanoma): 33.9 µM
- GI50 (HT29 colon): 1570 nM
- TGI (HT29 colon): 3.46 µM
- GI50 (T-47D breast): 1700 nM
- TGI (T-47D breast): 4.24 µM
- GI50 (SK-OV-3 ovarian): 2220 nM
- TGI (SK-OV-3 ovarian): 23.5 µM
- GI50 (SF-268 CNS): 794 nM
- TGI (SF-268 CNS): 2.65 µM
- GI50 (RPMI-8226 leukemia): 1560 nM
- TGI (RPMI-8226 leukemia): 4.65 µM
- GI50 (CAKI-1 renal): 181 nM
- TGI (CAKI-1 renal): 1.55 µM
- GI50 (ACHN renal): 38.2 nM
- TGI (ACHN renal): 1.52 µM
- GI50 (SF-295 CNS): 1100 nM
- TGI (SF-295 CNS): 2670 nM
- GI50 (MALME-3M melanoma): 15.8 µM
- TGI (MALME-3M melanoma): 41.4 µM
- GI50 (OVCAR-5 ovarian): 1570 nM
- TGI (OVCAR-5 ovarian): 3.42 µM
- GI50 (EKVX NSCLC): 1460 nM
- TGI (EKVX NSCLC): 3.58 µM
- GI50 (SK-MEL-28 melanoma): 16.1 µM
- TGI (SK-MEL-28 melanoma): 35.9 µM
- GI50 (UACC-62 melanoma): 1390 nM
- TGI (UACC-62 melanoma): 3.22 µM
- GI50 (MDA-MB-435): 1530 nM
- TGI (MDA-MB-435): 3.08 µM
- GI50 (CCRF-CEM leukemia): 1880 nM
- TGI (CCRF-CEM leukemia): 5.41 µM
